This is an account of results in patent US11707557B2, “Compositions and devices incorporating water-insoluble therapeutic agents and methods of the use thereof” (COOK MEDICAL TECHNOLOGIES LLC, priority 2014, dated 2023).

A short description of data set [1]: Liquid pharmaceutical excipients in gallate based pastes (solubility, viscosity score, pellet in water). Type of data set: physicochemical. From the text:
Various additional water/soluble/miscible liquids were explored (in addition to propylene glycol and polyethylene glycol) as excipients in gallate based pastes.
A viscosity score was established as follows: 1) Fluid—22 gauge needle; 2) Semi Viscous—18 gauge needle; 3) Viscous—16 gauge needle; 4) Waxy Pellet in water.

The nature of data set [2]: physchem.
Data set [3] can be described thus: Drug release from injectable PG:gallate pastes (60:40) into PBS. The note with it: 60:40 PG:EGCG or PG:tannic acid, 2% w/w drug, PBS pH 7.4, 37° C. The format is physicochemical. Here is the method: Methods: 60:40% w/w PG:EGCG or PG:tannic acid was used in these studies. 588 mg of propylene glycol was weighed into a 20 mL glass vials and 392 of EGCG or tannic acid was added followed by vortexing to distribute and dissolve the gallates. The vials were warmed to 60° C. and vortexed until all the contents were in solution. At this time 20 mg of drug was added (2% w/w) and vortexed until in solution. The following drugs were used: paclitaxel, docetaxel, retinoic acid, amphotericin B, and curcumin. 100 mg of each paste was weighed into the base of a 15 mL glass test tube and 10 mL of phosphate buffered saline was added at pH 7.4 and the tubes were incubated at 37° C. for certain times. All 10 mL of the PBS release media was removed and 1 mL analyzed by HPLC for drug content. 10 mL of fresh PBS was then added to all tubes

A short description of data set [4]: Drug concentrations obtained using EGCG at 50 mg per ml (microscopic check for particulates). Type of data set: physicochemical. Here is the method:
EGCG at 50 mg/ml and drug at approximately 250 micrograms per ml were dissolved in the listed solvent and dried down in a test tube under nitrogen. 1 ml of water was added, followed by vortexing. The solutions were examined for particulate matter under a microscope. If no particulates were present, the process was repeated with a higher drug amount. All the tested drugs remained in solution at the listed concentrations except for nystatin and hesperidin.

For data set [5] the following is noted: 24 h.
In another data set the test system is Caco2 cells. Kind of data set: Uptake and transfer of amphoterecin B into Caco2 cells. The format is in vitro ADME, human. The note with it: 3 hours, versus ambisome. On the procedure:
Caco2 cells were seeded onto 0.3 um transwell membranes and treated as in Example 9. A solution of amphoterecin B (250 ug per ml) in EGCG (25 mg per ml), tannic acid (25 mg/ml) in Hanks buffer pH 7.4. or ambisome was added to the top well for 3 hours. The bottom reservoir was collected and treated as in Example 8.

The nature of data set [6]: Release from PLGA microspheres +/- EGCG or tannic acid. The note with it: for drug released: first 20 days. Type of data set: physicochemical. On the procedure:
Method: The method involved pipetting a solution of the polymer PLGA (usually 20% w/v) and drug (usually 5% w/w to polymer) and EGCG (e.g. 20% w/w/ to polymer) in dichlomethane (DCM) (5 ml) into 100 ml of 2.5% PVA solution in water stirring at 450 rpm. The suspension was left stirring for 2 hours and the microspheres washed 4 times in distilled water. The microspheres were then dried under vacuum for 2 days. Drug encapsulation was measured by dissolving a known weight of microspheres in 1 ml of dichloromethane followed by immediate dilution to 10 ml in 60:40 acetonitrile/water. The amount of drug or EGCG in the top and bottom phase of this solution was measured using HPLC methods (mobile phase 58:37:5 Acetonitrile:water:methanol. 1 ml per min flow on a c18 column with detection at 232 nm)
Tannic acid: An alternative method was used, termed a water-in oil-in water emulsion. […] This forms a primary emulsion of water droplets in the PLGA solution stabilized by Span. When this emulsion was pipetted into the PVA solution the microspheres formed well. […] The microspheres were a light brown in color indicative of tannic acid encapsulation.
Methods: In these studies, 10 mg of microspheres were suspended in 2 ml of phosphate buffered saline (pH 7.4 10 mM phosphate) in microcentrifuge tubes and tumbled at 8 rpm at 37° C. The tubes were then centrifuged at 12000×g and the supernatants collected for drug analysis by HPLC. 2 ml of fresh PBS was then placed on top of the microspheres which were returned to the 37° C. oven for continued incubation with tumbling.
At the end of the study the residual mass of polymer and drug was dissolved in DCM and drug extracted into 60:40 acetonitrile:water to measure residual drug. The amounts of residual drug were 89% for plga alone (at 31 days), 16% for EGCG and 8% for tannic acid (both at 51 days) as expressed as a % of the original loading.

The nature of data set [7]: Release of finasteride from PVA foam embolization particles and Embospheres. Type of data set: physicochemical. Here is the method: Method: PVA foam embolization particles (Cook. Medical Bloomington Ind.) size 180-300 um. Vial of 220 mg split into two. 150 mg of EGCG with 10 mg of finasteride or 250 mg tannic acid with 1 mg of finasteride were dried as a common film from ethanol and solubilised in 1 ml of water and added to the 100 mg of PVA particles. Solutions were mixed for 30 minutes. At this time it was observed that all the EGCG or tannic acid color (pink or brown respectively) had disappeared from the solution and gone into the PVA which was now heavily colored. The solution was discarded and the PVA freeze dried. 10 mg of the EGCG formulation or 5 mg of the tannic acid formulation was added to 2 ml of PBS (pH 7.4) and the release of finasteride was measured over 2 weeks.
Embospheres: Syringe contents ((Embospheres 500-700 um Merit Medical S. Jordan Utah) were split into two and incubated in water solutions of finasteride (1 mg/ml in 35 mg of EGCG or tannic acid made up from dried films as above) for 30 minutes with shaking. At this time it was observed that all the EGCG or tannic acid color (pink or brown respectively) had disappeared from the solution and gone into the Embospheres which were no heavily colored. The solution was discarded. 20% of the resulting particles (still wet) were then placed in microcentrifuge tubes containing 2 ml of PBS and drug release was measured.

Data set [8] is described as follows: physchem. The format is physicochemical. The note with it: for solubility: thermodynamic from solid. On the procedure: Method: Solutions of finasteride and either EGCG or tannic acid at various weight percentages in ethanol were dried down under nitrogen. Water was added and the dried material suspended/dissolved. […] The pH of tannic acid solutions was brought up to 7 by the addition of NAOH.

Setting [9] is: aqueous with cosolvent or surfactant or cyclodextrin, thermodynamic from solid, drug concentration solubilised at maximum EGCG concentration.

In brackets after ≈: the same amount, converted by molar mass. Bounds are passed on as bounds.

Take Tween 80: in data set [1], the “Solubility of EGCG in excipient” value turned out to be 15% and the “Solubility of tannic acid in excipient” value is 15%.
Take `C[C@@H]1[C@H](O)[C@@H](C)/C=C/C=C/C=C/C=C/C=C/C=C/C=C/[C@H](O[C@@H]2O[C@H](C)[C@@H](O)[C@H](N)[C@@H]2O)C[C@@H]2O[C@](O)(C[C@@H](O)C[C@@H](O)[C@H](O)CC[C@@H](O)C[C@@H](O)CC(=O)O[C@H]1C)C[C@H](O)[C@H]2C(=O)O` [amphotericin, amphotericin B]: the solubility in “physchem [2]” (setting [9]) is about 1.8 mg/mL (≈ 1.95 mM); in “physchem [2]” (aqueous with cosolvent or surfactant or cyclodextrin, thermodynamic from solid, drug concentration solubilised at maximum tannic acid concentration), about 5.7 mg/mL (≈ 6.17 mM); in the data set “physchem [2]” (water, free solubility in water), 0.001 to 0.01 mg/mL (≈ 0.00108 to 0.0108 mM). Also, the “drug release from PG:gallate paste” value in data set [3] is reported as “relatively controlled release of the drug over 24 hours”. For the same compound, in [4], the Visual appearance result is reported as “clear”. Also, the “Drug Concentration” value in data set [4] (1 ml of water) stood at 125 microgram/ml. In addition, in [4] (under a microscope), the Particulates present entry was “no”. Also, the “stability of EGCG solutions of the drug” value in [5] was “stable for 24 hours”. Moreover, the “stability of tannic acid solutions of the drug” value in [5] is recorded as “stable for 24 hours”. Further, the “drug uptake and transport through the cells” value in the data set with Caco2 cells (250 ug per ml in EGCG 25 mg per ml) and in the data set on Caco2 cells (250 ug per ml in tannic acid 25 mg/ml) was “much higher levels” each time.
On to `CC(C)(C)NC(=O)[C@H]1CC[C@H]2[C@@H]3CC[C@H]4NC(=O)C=C[C@]4(C)[C@H]3CC[C@]12C` [finasteride], for which the solubility was about 11 mg/mL (≈ 29.5 mM) in the data set “physchem [2]” (setting [9]); about 10 mg/mL (≈ 26.8 mM) in “physchem [2]” (pH 7, aqueous with cosolvent or surfactant or cyclodextrin, thermodynamic from solid, drug concentration solubilised at maximum tannic acid concentration); over 10 mg/mL in the data set “physchem [8]” (aqueous with cosolvent or surfactant or cyclodextrin); 8 to 10 mg/mL (≈ 21.5 to 26.8 mM) in “physchem [8]” (pH 7, aqueous with cosolvent or surfactant or cyclodextrin); 0.075 mg/mL (≈ 0.201 mM) in “physchem [8]” (water). The drug released result in data set [6] (PLGA microspheres with EGCG) and in data set [6] (PLGA microspheres with tannic acid) was “approx 80%” in each case. In addition, in data set [6] (PLGA microspheres without EGCG or tannic acid, after 32 days), the encapsulated drug released is 7%. For the same compound, the “residual drug as % of the original loading” value in data set [6] (PLGA with EGCG, at 51 days) was found to be 16%; in [6] (PLGA with tannic acid, at 51 days), 8%; in [6] (plga alone, at 31 days) it was 89%. Further, the “stability of EGCG solutions of the drug” value in data set [5] is listed as “stable for 24 hours”. For the same compound, in data set [5], the “stability of tannic acid solutions of the drug” value is on record as “stable for 24 hours”. The compound also yielded a finasteride release in data set [7] (PVA incubated with tannic acid/finasteride solution, PBS, in 3 days) of 100%. In data set [7] (the other embolic particles (PVA with EGCG, Embospheres with EGCG or tannic acid)), the “period of finasteride release” value is given as “over a two week period”. Also, in the data set “physchem [8]” (24 h), the stability of solutions entry was “stable over 24 hours”.

By solubility is commonly meant the concentration that dissolves in the medium under given conditions. Lower therefore signals a poorly soluble substance.
